The target in assay [1] is human Oxytocin Receptor (hOTR) (Homo sapiens (Human), UniProt P30559). Nature of the assay: Oxytocin receptor antagonist assay (oxytocin-evoked calcium, FLIPR, CHEM-1-hOTR cells). It is filed as cell-based. The note with it: read-out: OT IC50. The gist of the method:
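Antagonist mode in CHEM-1-hOTR cells loaded with Calcium-6 dye; compounds (10-point, 1:3 series) preincubated 15 min at 37 °C, then oxytocin added at daily-determined EC80 in HBSS/20 mM HEPES with 0.1% BSA. Fluorescence (ex 470-495, em 515-575 nm) followed 3 min on FLIPR^TETRA; concentration-dependent reduction of oxytocin response measured.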

Assay [2] addresses human Arginine Vasopressin Receptor V2 (AVPR2) (Homo sapiens (Human), UniProt P30518). Nature of the assay: Vasopressin V2 receptor antagonist assay (cAMP TR-FRET, 1321N1 cells). It is filed as cell-based. As for the experimental part:
The purpose of the assay was to determine the inhibitory effect of synthesized compounds on the Vasopressin receptor 2. […] Arginine Vasopressin (AVP) evokes an increase in intracellular cAMP in these cells which is measured in a TR-FRET assay using a Europium cAMP tracer and ULight labelled antibody reagents contained in a LANCE Ultra cAMP kit (Perkin Elmer #TRF0263). […] Test compounds were assessed for their ability to affect the magnitude of the response to AVP, with antagonists showing a concentration-dependent decrease in the AVP-mediated reduction in TR-FRET signal.
cAMPZen V2 assay ready cells were thawed at 37° C. and resuspended directly from frozen in 9 ml growth medium consisting of DMEM supplemented with 10% v/v fetal bovine serum, 1× non-essential amino acids, and 1 mM sodium pyruvate. Cells were spun at 1000 rpm for 3 minutes and the supernatant was carefully removed and discarded. The pellet was resuspended in 5 ml stimulation buffer and the cell density determined using the Vi-Cell automated cell counter. The cell suspension was diluted to a 0.2×10^6/ml suspension ready for plating. […] Stimulation buffer consisted of HBSS (+Ca/+Mg) supplemented with 5 mM HEPES, 0.1% BSA stabiliser and 0.5 mM IBMX.
At the start of each assay day the potency of AVP was assessed and an EC80 concentration determined for subsequent compound profiling. Assays were performed by first an addition of 2.5 μl of control or test compound at 4× final concentration in stimulation buffer followed by 2.5 μl of AVP at 4× final concentration in stimulation buffer. After a 1 hour reaction, detection reagents were added by first an addition of 5 μl EU-cAMP tracer, followed by 5 μl ULight-anti-cAMP both diluted as per the manufacturer's instructions. […] For compound profiling, test compounds were dispensed by the Labcyte Echo (10-point curve, 1:3 dilutions) in a target 0.1 μl volume then diluted 750-fold in stimulation buffer containing 3% DMSO prior to addition to the cells. At the end of the incubation period, 2.5 μl of AVP in stimulation buffer was added at the previously determined EC80 concentration.
On the technique in general: In TR-FRET formats the signal depends on donor and acceptor labels being close together.

Where two headings read alike, the source gives them in different places. Some results are limits rather than exact numbers.

Chain of human Arginine Vasopressin Receptor V2 (AVPR2) (P30518 whole entry): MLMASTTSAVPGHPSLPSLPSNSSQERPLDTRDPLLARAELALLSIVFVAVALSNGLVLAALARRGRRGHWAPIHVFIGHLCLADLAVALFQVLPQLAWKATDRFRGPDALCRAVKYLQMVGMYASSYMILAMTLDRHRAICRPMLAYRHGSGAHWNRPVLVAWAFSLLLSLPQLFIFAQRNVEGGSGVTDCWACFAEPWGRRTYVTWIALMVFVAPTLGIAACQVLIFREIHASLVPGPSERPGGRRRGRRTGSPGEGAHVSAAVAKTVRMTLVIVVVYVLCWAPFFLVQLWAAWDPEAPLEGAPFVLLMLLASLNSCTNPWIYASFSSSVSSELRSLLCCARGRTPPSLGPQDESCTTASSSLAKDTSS
Chain of human Oxytocin Receptor (hOTR) (P30559 whole entry): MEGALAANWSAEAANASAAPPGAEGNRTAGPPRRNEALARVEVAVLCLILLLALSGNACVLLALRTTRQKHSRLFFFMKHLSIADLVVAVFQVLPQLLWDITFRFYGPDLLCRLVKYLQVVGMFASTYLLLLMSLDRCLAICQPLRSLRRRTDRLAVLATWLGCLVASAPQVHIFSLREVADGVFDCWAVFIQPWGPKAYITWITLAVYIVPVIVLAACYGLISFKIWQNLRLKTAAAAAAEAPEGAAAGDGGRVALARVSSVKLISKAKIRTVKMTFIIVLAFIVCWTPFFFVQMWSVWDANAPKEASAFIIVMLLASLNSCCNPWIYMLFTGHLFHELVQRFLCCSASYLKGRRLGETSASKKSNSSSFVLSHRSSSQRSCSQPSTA

One may read the IC50 as the concentration needed to halve the response being measured. As to `CN1Cc2cc(Cl)ccc2-n2c(nnc2C2CC3(C2)CN(C(=O)C2CC2)C3)C1` [compound 28], the IC50 in assay [1] and in assay [2] was greater than 1000 nM each time. Consider `CCOC(=O)N1Cc2cc(Cl)ccc2-n2c(C3CC4(C3)CN(c3ccc(F)cn3)C4)nnc2C1C` (stereo not drawn) [compound 169], for which the results for the IC50 in assay [1] and in assay [2] were 100 to 500 nM and greater than 1000 nM, respectively.

As to `CC(C)N1Cc2cc(Cl)ccc2-n2c(nnc2C2CC3(C2)CN(c2ccc(F)cn2)C3)C1` [compound 50], the IC50 was greater than 1000 nM in assay [1] and 100 to 500 nM in assay [2]. On to `CC(C)OC(=O)N1Cc2cc(Cl)ccc2-n2c(nnc2C2CC3(C2)CN(C(=O)C2CC2)C3)C1` [compound 153], for which the IC50 in assay [1] and in assay [2] was greater than 1000 nM each time. As for `CC1c2nnc(C3CC4(C3)CN(c3ncccn3)C4)n2-c2ccc(Cl)cc2CN1C(=O)OC1CC1` (single isomer, unassigned) [Cpd 171B], the IC50 in assay [1] and in assay [2] was greater than 1000 nM each time. On to `CCOC(=O)N1Cc2cc(Cl)ccc2-n2c(C3CC4(C3)CN(c3ccc(F)cn3)C4)nnc2C1C` (single isomer, unassigned) [Cpd 169A], for which the IC50 was 100 to 500 nM in assay [1] and greater than 1000 nM in assay [2].

For the compound `CN1Cc2cc(Cl)ccc2-n2c(nnc2C2CC3(C2)CN(c2cccc(F)n2)C3)C1` [compound 8], the IC50 in assay [1] and in assay [2] was greater than 1000 nM throughout. With `CC1c2nnc(C3CC4(C3)CN(c3ncc(F)cn3)C4)n2-c2ccc(Cl)cc2CN1C(=O)OC1(C)CC1` (stereo not drawn) [compound 173], the IC50 in assay [1] is 100 to 500 nM; in assay [2], greater than 1000 nM.

`CCC(=O)N1Cc2cc(Cl)ccc2-n2c(nnc2C2CC3(C2)CN(c2ccc(F)cn2)C3)C1` [compound 72]: the IC50 in assay [1] is greater than 1000 nM; in assay [2], 100 to 500 nM. For `CC(C)C(=O)N1Cc2cc(Cl)ccc2-n2c(nnc2C2CC3(C2)CN(c2ccc(F)cn2)C3)C1` [compound 63] the same measures were greater than 1000 nM and 500 to 1000 nM. As to `CCOC(=O)N1Cc2cc(Cl)ccc2-n2c(C3CC4(C3)CN(c3ncc(F)cn3)C4)nnc2C1C` (stereo not drawn) [compound 172], the half-inhibitory concentration (IC50) in assay [1] and in assay [2] was greater than 1000 nM throughout.

Consider `CN1Cc2cc(Cl)ccc2-n2c(nnc2C2CC3(C2)CN(c2ncccc2F)C3)C1` [compound 4], for which the IC50 in assay [1] and in assay [2] was greater than 1000 nM throughout. On to `CC1c2nnc(C3CC4(C3)CN(c3ccc(F)cn3)C4)n2-c2ccc(Cl)cc2CN1C(=O)C(C)(C)F` (single isomer, unassigned) [Cpd 178A], for which the IC50 in assay [1] and in assay [2] was 100 to 500 nM in each case.

As to `COC(=O)N1Cc2cc(Cl)ccc2-n2c(C3CC4(C3)CN(c3ccc(F)cn3)C4)nnc2C1C` (stereo not drawn) [compound 142, methyl 8-chloro-1-(2-(5-fluoropyridin-2-yl)-2-azaspiro[3.3]heptan-6-yl)-4-methyl-4H-benzo[f][1,2,4]triazolo[4,3-a][1,4]diazepine-5(6H)-carboxylate], the IC50 was 500 to 1000 nM in assay [1] and greater than 1000 nM in assay [2].

For the compound `CC1c2nnc(C3CC4(C3)CN(c3ccc(F)cn3)C4)n2-c2ccc(Cl)cc2CN1C(=O)C1(F)CC1` (stereo not drawn) [compound 174], the IC50 is 500 to 1000 nM in assay [1] and greater than 1000 nM in assay [2].

Regarding `CC(CF)N1Cc2cc(Cl)ccc2-n2c(nnc2C2CC3(C2)CN(c2ccccn2)C3)C1` (stereo not drawn) [compound 58], the IC50 was greater than 1000 nM in assay [1] and 500 to 1000 nM in assay [2]. The matching figures for `CCOC(=O)N1Cc2cc(Cl)ccc2-n2c(nnc2C2CC3(C2)CN(c2ccc(F)cn2)C3)C1` [compound 69]: 100 to 500 nM and 100 to 500 nM. The matching figures for `FC(F)CN1Cc2cc(Cl)ccc2-n2c(nnc2C2CC3(C2)CN(c2ccccn2)C3)C1` [compound 52]: 500 to 1000 nM and 100 to 500 nM. Turning to `COCCN1Cc2cc(Cl)ccc2-n2c(nnc2C2CC3(C2)CN(c2ccccn2)C3)C1` [compound 39, 8-chloro-5-(2-methoxyethyl)-1-(2-(pyridin-2-yl)-2-azaspiro[3.3]heptan-6-yl)-5,6-dihydro-4H-benzo[f][1,2,4]triazolo[4,3-a][1,4]diazepine], the IC50 in assay [1] and in assay [2] was greater than 1000 nM throughout. With `CC1c2nnc(C3CC4(C3)CN(c3ccccn3)C4)n2-c2ccc(Cl)cc2CN1C(=O)C1(F)CC1` (single isomer, unassigned) [Cpd 181A], the IC50 in assay [1] and in assay [2] was 100 to 500 nM each time.

Turning to `O=C(C(F)F)N1Cc2cc(Cl)ccc2-n2c(nnc2C2CC3(C2)CN(c2ccccn2)C3)C1` [compound 122], the results for the IC50 in assay [1] and in assay [2] were greater than 1000 nM and 100 to 500 nM, respectively. In assay [2], `CC(C)OC(=O)N1Cc2cc(Cl)ccc2-n2c(C3CC4(C3)CN(c3ncc(F)cn3)C4)nnc2C1C` (single isomer, unassigned) [Cpd 201A] had an IC50 greater than 1000 nM. As to `CC1c2nnc(C3CC4(C3)CN(c3ccc(F)cn3)C4)n2-c2ccc(Cl)cc2CN1C` (single isomer, unassigned) [Cpd 179A], the IC50 in assay [1] and in assay [2] was greater than 1000 nM throughout. For `CC1c2nnc(C3CC4(C3)CN(c3cnccn3)C4)n2-c2ccc(Cl)cc2CN1C(=O)C1(F)CC1` (stereo not drawn) [compound 177], the IC50 in assay [1] and in assay [2] was greater than 1000 nM each time. Regarding `CC(CF)OC(=O)N1Cc2cc(Cl)ccc2-n2c(nnc2C2CC3(C2)CN(c2ccc(F)cn2)C3)C1` (stereo not drawn) [compound 78], the IC50 in assay [1] and in assay [2] was 100 to 500 nM throughout.

As for `CC1c2nnc(C3CC4(C3)CN(c3ncccn3)C4)n2-c2ccc(Cl)cc2CN1C(=O)C1(F)CC1` (stereo not drawn) [compound 175], the IC50 in assay [1] and in assay [2] was greater than 1000 nM in each case. Regarding `COC(=O)N1Cc2cc(Cl)ccc2-n2c(C3CC4(C3)CN(c3ncccn3)C4)nnc2C1C` (single isomer, unassigned) [Cpd 166A], the IC50 in assay [1] and in assay [2] was greater than 1000 nM throughout. Regarding `CC1c2nnc(C3CC4(C3)CN(c3ncc(F)cn3)C4)n2-c2ccc(Cl)cc2CN1C(=O)OC(CF)CF` (stereo not drawn) [compound 194], the 50% inhibitory concentration (IC50) in assay [1] and in assay [2] was greater than 1000 nM throughout. Regarding `CN1Cc2cc(Cl)ccc2-n2c(nnc2C2CC3(C2)CN(c2cnccn2)C3)C1` [compound 3], the IC50 in assay [1] and in assay [2] was greater than 1000 nM throughout. As for `CC(C)OC(=O)N1Cc2cc(Cl)ccc2-n2c(C3CC4(C3)CN(c3cnccn3)C4)nnc2C1C` (stereo not drawn) [compound 164], the IC50 in assay [1] is 100 to 500 nM; in assay [2], greater than 1000 nM. The matching figures for `CC(C)OC(=O)N1Cc2cc(Cl)ccc2-n2c(C3CC4(C3)CN(c3ncccn3)C4)nnc2C1C` (single isomer, unassigned) [Cpd 167A]: 500 to 1000 nM and greater than 1000 nM. For `O=C(OC1CC1)N1Cc2cc(Cl)ccc2-n2c(nnc2C2CC3(C2)CN(c2ccc(F)cn2)C3)C1` [compound 90] the same measures were 100 to 500 nM and greater than 1000 nM. The matching figures for `O=C(C(F)F)N1Cc2cc(Cl)ccc2-n2c(nnc2C2CC3(C2)CN(C(=O)C2(F)CC2)C3)C1` [compound 134]: greater than 1000 nM and greater than 1000 nM. For `Clc1ccc2c(c1)CN(C1CC1)Cc1nnc(C3CC4(C3)CN(c3ccccn3)C4)n1-2` [compound 56], the IC50 in assay [1] was 500 to 1000 nM; in assay [2], 100 to 500 nM. The matching figures for `CCN1Cc2cc(Cl)ccc2-n2c(nnc2C2CC3(C2)CN(c2cnccn2)C3)C1` [compound 46]: greater than 1000 nM and greater than 1000 nM. For `CC1c2nnc(C3CC4(C3)CN(c3ncccn3)C4)n2-c2ccc(Cl)cc2CN1C(=O)OC1CC1` (single isomer, unassigned) [Cpd 171A] the same measures were greater than 1000 nM and greater than 1000 nM. The matching figures for `CC1c2nnc(C3CC4(C3)CN(c3ccc(F)cn3)C4)n2-c2ccc(Cl)cc2CN1C(=O)OC(CF)CF` (single isomer, unassigned) [Cpd 203A]: 100 to 500 nM and 500 to 1000 nM. Consider `CC(C)C(=O)N1Cc2cc(Cl)ccc2-n2c(nnc2C2CC3(C2)CN(c2ccccn2)C3)C1` [compound 71], for which the IC50 in assay [1] and in assay [2] was greater than 1000 nM throughout. As to `COC(=O)N1Cc2cc(Cl)ccc2-n2c(nnc2C2CC3(C2)CN(c2ccccn2)C3)C1` [compound 70], the results for the IC50 in assay [1] and in assay [2] were 500 to 1000 nM and 100 to 500 nM, respectively. Take `CN1Cc2cc(Cl)ccc2-n2c(nnc2[C@H]2CC[C@H](Oc3ccccn3)CC2)C1` [balovaptan, reference compound]: the half-inhibitory concentration (IC50) in assay [1] (in vitro antagonist assay, reference compounds) is greater than 1000 nM.

The values above are taken from US11186577B2, “Vasopressin receptor antagonists and products and methods related thereto” (BlackThorn Therapeutics, Inc., priority 2017, dated 2021).
